Measured values as given in patent publication US20130309380A1, “METHODS FOR PRESERVING FRESH PRODUCE” (NatureSeal, Inc., priority 2003, published 2013).

Key:
[1] = tested on: Bramley apples; test: Water released by sliced Bramley apples
Protocol: (§1) The firmness of the produce in Example 11a were evaluated by bending produce samples. Appearance was evaluated by visual inspection. The moisture was evaluated by measuring the amount of water the produce released.
(§2) Whole Bramley apples free from blemishes or bruises, were rinsed with water, sanitized with a sodium hypochlorite solution having 100 parts per million available chlorine, for two minutes, then peeled, cored, and sliced. The sliced apples were dipped into a fresh produce preservative solution that contained 5.12% strontium ascorbate; the fresh produce preservative solution contained 4.12% ascorbic acid and 1.79% […], for about 30 to 60 seconds. The apples were then drained in a colander for one minute. The apple slices and the colander were placed in 500 micron plastic bags from SunSet Packaging, stored at 4° C. and evaluated several times over a 15 day period. Water which collected in the plastic bag was removed and weighed.
For comparison, similarly prepared apple slices were placed in one of several solutions that contained either: 4.3% ascorbic acid and 1.13% hydrated MgCO3, specifically 4MgCO3.Mg(OH)25H2O or a 5.0% w/w aqueous solution of calcium ascorbate dihydrate, having a pH of 7.2; or a 5.3% w/w solution, of 4.12% ascorbic acid and 1.17% calcium carbonate,; or 6% ascorbic acid having a pH of 2.3; or 48 g ascorbic acid, 48 g citric acid, 16 g CaCl2 and 48 g NaCl in 800 g water, with a pH of 1.2; or 6% w/w citric acid and 6% w/w ascorbic acid; or 4.64% sodium ascorbate having 4.13% ascorbic acid and 1.18% NaCo3. […]

[2] = tested on: Bramley apples; test: Evaluation of sliced Bramley apples: appearance by visual inspection, firmness by bending
Protocol: as §1, §2
For comparison, similarly prepared apple slices were placed in one of several solutions that contained either: 4.3% ascorbic acid and 1.13% hydrated MgCO3, specifically 4MgCO3.Mg(OH)25H2O or a 5.0% w/w aqueous solution of calcium ascorbate dihydrate, having a pH of 7.2; or a 5.3% w/w solution, of 4.12% ascorbic acid and 1.17% calcium carbonate,; or 6% ascorbic acid having a pH of 2.3; or 48 g ascorbic acid, 48 g citric acid, 16 g CaCl2 and 48 g NaCl in 800 g water, with a pH of 1.2; or 6% w/w citric acid and 6% w/w ascorbic acid; or 4.64% sodium ascorbate having 4.13% ascorbic acid and 1.18% NaCo3.
Bramley apples were preserved with the fresh produce preservative as in Example 11a except that the preservative solution contained lithium ascorbate. The lithium ascorbate solution was prepared by adding 7.35 grams of lithium carbonate and 35 grams ascorbic acid to 800 grams water.
For comparison, apple slices were placed in one of several comparative solutions: a 5.0% w/w aqueous solution of calcium ascorbate dihydrate containing 42.5 grams of calcium ascorbate dihydrate and 800 grams water with a pH of 7; a 5.3% w/w solution of calcium ascorbate containing 44.94 grams of mixture of 9.95 grams calcium carbonate and 35 grams ascorbic acid in 800 grams water with a pH of 5.5; a comparative solution, containing 48 g ascorbic acid, 48 g citric acid, 16 g CaCl2, 48 g NaCl and 800 g water with a pH of 1.2; a comparative solution of sodium ascorbate containing 28.45 grams of sodium carbonate 35 grams ascorbic acid, 800 grams water having a pH of 6.8; a comparative solution of calcium ascorbate containing 8.75 grams of calcium carbonate, 35 grams ascorbic acid, and to 800 grams water; a comparative solution of calcium ascorbate containing 9.95 grams of calcium carbonate, 35 grams ascorbic acid, and 765 grams water; a comparative solution of magnesium ascorbate containing 9.66 grams of hydrated magnesium carbonate 4MgCO3.Mg(OH)25H2O, 35 grams ascorbic acid, 765 grams water, having a pH of 6.4; and a comparative solution of zinc ascorbate containing 35 grams ascorbic acid, 12.74 grams zinc carbonate and 765 grams water, with a pH of 5.5. The apple slices were evaluated on day five.

## O=C1O[C@H]([C@@H](O)CO)C([O-])=C1O.[Na+] [Sodium Ascorbate, sodium ascorbate]
[1]; 4 hr at 4° C.
  Water Released: 6.58 g
[1]; 28 hr at 4° C.
  Water Released: 6.74 g
[1]; 52 hr at 4° C.
  Water Released: 6.67 g
[1]; 94 hr at 4° C.
  Water Released: 4.87 g
[1]; 191 hr at 4° C.
  Water Released: 4.08 g
[1]; 335 hr at 4° C.
  Water Released: 3.77 g
[2]; 4 hr at 4° C.
  Texture: Firm
[2]; 28 hr at 4° C.
  Texture: Firm
[2]; 52 hr at 4° C.
  Texture: Firm
[2]; 94 hr at 4° C.
  Texture: Firm
[2]; 191 hr at 4° C.
  Texture: Firm
[2]; 335 hr at 4° C.
  Appearance (visual inspection): Internal browning on some
[2]; Day 5
  Color: White
  Texture: Firm

## zinc ascorbate
[2]; Day 5
  Color: Brown
  Texture: Very Soft

## calcium ascorbate dihydrate
[1]; 4 hr at 4° C.
  Water Released: 6.84 g
[1]; 28 hr at 4° C.
  Water Released: 5.88 g
[1]; 52 hr at 4° C.
  Water Released: 5.56 g
[1]; 94 hr at 4° C.
  Water Released: 4.00 g
[1]; 191 hr at 4° C.
  Water Released: 2.67 g
[1]; 335 hr at 4° C.
  Water Released: 1.33 g
[2]; 28 hr at 4° C.
  Texture: Firm
[2]; 52 hr at 4° C.
  Texture: Firm
[2]; 94 hr at 4° C.
  Texture: Firm
[2]; 191 hr at 4° C.
  Texture: Firm
[2]; 335 hr at 4° C.
  Appearance (visual inspection): Good condition
  Texture: Firm
[2]; Day 5
  Color: White
  Texture: Very Firm

## magnesium ascorbate
[1]; 4 hr at 4° C.
  Water Released: 6.54 g
[1]; 28 hr at 4° C.
  Water Released: 7.07 g
[1]; 52 hr at 4° C.
  Water Released: 6.43 g
[1]; 94 hr at 4° C.
  Water Released: 4.75 g
[1]; 191 hr at 4° C.
  Water Released: 3.73 g
[1]; 335 hr at 4° C.
  Water Released: 2.17 g
[2]; 28 hr at 4° C.
  Texture: Firm
[2]; 52 hr at 4° C.
  Texture: Firm
[2]; 94 hr at 4° C.
  Texture: Firm
[2]; 191 hr at 4° C.
  Texture: Firm
[2]; 335 hr at 4° C.
  Appearance (visual inspection): Good color
  Texture: Firm and crisp
[2]; Day 5
  Color: White
  Texture: Very Firm
